# From patent publication US20080058368A1, “4,5,6,7-Tetrahydro-[1,2]Dithiolo[4,3-C] Pyridine-3-Thione Compounds” (priority 2004, published 2008)
# Legend:
# C/EBPβ = C/EBPβ activation (phosphorylation, nuclear translocation) by immunochemical method in treated cells; type: cell-based; set-up: key to C/EBPβ activation: O: same enzyme induction as oltipraz; OO: stronger enzyme induction than oltipraz; conditions: for C/EBPβ activation: 30 μM, 24 hours, nuclear fractions or lysates, relative to oltipraz; for phosphorylation of 105Serine residue of C/EBPβ: after 3 hours from the culture; for p-C/EBPβ (105Serine) localisation, cytoplasmic to nuclear fractions: after 6 hours
# Method: (§1) The present experimental example is to confirm C/EBPβ activation by using Compound 1 and Compound 2 which were prepared in the above Examples, and a degree of increase of Glutathione S-transferase A (GSTA), a representative gene which is induced by C/EBPβ activation. […] 0.7 mg/ml of MTT (yellow tetrazolium salt) was added thereto and further cultured for 4 hours. Since MTT is reduced to insoluble formazan crystal in survived cells, the produced crystal was dissolved with DMSO solvent, and the absorbance at 595 nm was measured. The cells were cultured with the newly prepared compounds except for the compounds which kill cells, i.e., Compound 1 and Compound 2 (each 30 μM), for 24 hours, and C/EBPβ activation and GSTA expression in nuclear fractions or lysates obtained from the treated cells were measured by immunochemical method.
# When C/EBPβ gene is deleted in animals, regeneration of live tissue is impossible [Greenbaum et al., J Clin Invest. 1998; 102(5):996-1007]. C/EBPβ activation inhibits transforming growth factors (TGF-β) which is a mediating factor of hepatic fibrosis [Kang et al., FASEB J. 2002; 16(14):1988-90]. Therefore, C/EBPβ activation plays an important role in liver tissue regeneration and hepatic fibrosis inhibition. C/EBPβ activation process takes place by mediating phosphorylation of specific amino acid residue, i.e., ^105Serine residue of C/EBPβ [Buck et al., Mol. Cell. 1999; 4(6):1087-92]. Under this background art, it was observed whether or not direct increase of RSK1's activity by the compounds of the present invention induces phosphorylation of ^105Serine residue of C/EBPβ. […] In this experimental example, oltipraz was used as comparative example.
# [1] = tested on: Glutathione S-transferase A (GSTA); assay: GSTA expression induced by C/EBPβ activation, immunochemical method; type: cell-based; set-up: key: +: similar activation effects to oltipraz; ++: stronger activation effects than oltipraz; conditions: 30 μM, 24 hours, nuclear fractions or lysates, relative to oltipraz
# Method: as §1
# When C/EBPβ gene is deleted in animals, regeneration of live tissue is impossible [Greenbaum et al., J Clin Invest. 1998; 102(5):996-1007]. C/EBPβ activation inhibits transforming growth factors (TGF-β) which is a mediating factor of hepatic fibrosis [Kang et al., FASEB J. 2002; 16(14):1988-90]. Therefore, C/EBPβ activation plays an important role in liver tissue regeneration and hepatic fibrosis inhibition. […]
smiles,measurement,setting,value
"S=c1ssc2c1CN(Cc1ccccc1)CC2 [Compound 1, 5-benzyl-4,5,6,7-tetrahydro-1,2-dithiolo[4,3-c]pyridine-3-thion]",degree of phosphorylation of 188Threonine residue of C/EBPβ,C/EBPβ,not changed at all
same,C/EBPβ activation,C/EBPβ,O
same,phosphorylation of 105Serine residue of C/EBPβ,C/EBPβ,increased
same,"p-C/EBPβ (105Serine) localisation, cytoplasmic to nuclear fractions",C/EBPβ,moved into the nuclear fractions
same,GSTA induction,[1],++
"CCOC(=O)N1CCc2ssc(=S)c2C1 [Compound 2, 3-thioxo-6,7-dihydro-3H,4H-1,2-dithiolo[4,3-c]pyridine-5-carboxylic acid ethyl ester]",degree of phosphorylation of 188Threonine residue of C/EBPβ,C/EBPβ,not changed at all
same,C/EBPβ activation,C/EBPβ,O
same,phosphorylation of 105Serine residue of C/EBPβ,C/EBPβ,increased
same,"p-C/EBPβ (105Serine) localisation, cytoplasmic to nuclear fractions",C/EBPβ,moved into the nuclear fractions
same,GSTA induction,[1],++
